This is an account of results in ChEMBL document CHEMBL3244093, “Synthesis and antiinflammatory activity of trisubstituted pyrimidines and triazines” (1978).

Experiment [1] relates to Rattus norvegicus. In words: Antiinflammatory activity in po dosed rat assessed as inhibition of carrageenan-induced foot edema compound administered 1 hr before carrageenan challenge measured after 3 to 3.5 hrs relative to untreated control. The format is functional. (In the carrageenan paw model, swelling and tenderness develop within hours.)
Experiment [2] deals with Rattus norvegicus. Kind of experiment: Antiinflammatory activity in rat assessed as inhibition of carrageenan-induced foot edema at 100 mg/kg, po administered 1 hr before carrageenan challenge measured after 3 to 3.5 hrs relative to untreated control. It is filed as functional.

Consider `COc1ccc(-c2cnc(N)nc2-c2ccc(OC)cc2)cc1`, for which the median effective dose (ED50) (in general, the dose that gives a 50% effect, or the effect in half of the subjects) in the experiment with Rattus norvegicus [1] was determined as 85 mg/kg.
As for `CCCCc1nnc2c(ccc3ccccc32)n1`, the inhibition in vivo (in general, the relative decrease from the control value, in per cent) at 100 mg/kg in the experiment with Rattus norvegicus [2] was under 5%.
With `CC(=O)Nc1ncc(-c2ccccc2)c(C(C)(C)C)n1`, in the experiment on Rattus norvegicus [2], the inhibition in vivo at 100 mg/kg turned out to be 29%.
On the same count and under the same terms, as for `CC(C)(C)c1nc(N)ncc1-c1ccccc1`, the figure is 46%; as for `CN(C)c1nccc(C(C)(C)C)n1`, 18%.
Regarding `CCCCC1C(=O)N(c2ccccc2)N(c2ccccc2)C1=O` [PHENYLBUTAZONE], the 50% effective dose (ED50) in the experiment with Rattus norvegicus [1] worked out at 25 mg/kg.
For `Cc1ncc2c(n1)-c1ccccc1CCC2`, in the experiment with Rattus norvegicus [2], the inhibition in vivo at 100 mg/kg is under 5%.
Consider `CC(C)(C)c1nc(NN)ncc1-c1ccccc1`, for which, in the experiment with Rattus norvegicus [2], the inhibition in vivo at 100 mg/kg is under 5%.
Still for that read-out and setting: the figure for `CC(C)(C)C1CCc2nncnc2C1` (stereo unspecified) is 49%.
Turning to `Cc1ncc2c(n1)-c1ccccc1CC2`, the inhibition in vivo at 100 mg/kg with Rattus norvegicus [2] was under 5%.
As for `CC(C)(C)c1nc(N)ncc1-c1ccc(Cl)cc1`, the inhibition in vivo at 100 mg/kg in the experiment with Rattus norvegicus [2] worked out at 25%.
Same read-out and setting: the figure for `Cc1ncc2c(n1)CCC(C(C)(C)C)C2` (stereo unspecified) is under 5%.
Still for that read-out and setting: as for `CC(C)(C)c1ncncc1-c1ccccc1`, the figure is 48%.
On the same count and under the same terms, as for `CC(C)(C)c1nc(-c2ccccc2)ncc1-c1ccccc1`, the figure is under 5%; as for `CN1CCc2ncncc2C1`, 50%.
Turning to `Nc1nccc(-c2ccncc2)n1` [listing 1 of 2 here], in the experiment on Rattus norvegicus [1], the median effective dose (ED50) turned out to be 38 mg/kg.
Same read-out and setting: as for `CNc1nccc(-c2ccncc2)n1`, the figure is 49 mg/kg.
`Cc1ncc(-c2ccccc2)c(C(C)(C)C)n1`: in the experiment with Rattus norvegicus [2], the inhibition in vivo at 100 mg/kg was determined as 22%.
As for `c1ccc(-c2cncnc2-c2ccncc2)cc1`, the ED50 with Rattus norvegicus [1] was 95 mg/kg.
With `CC(C)(C)C1CCc2ncncc2C1` (stereo unspecified), the ED50 in the experiment with Rattus norvegicus [1] was determined as 58 mg/kg.
On to `Cc1nnc(C(C)(C)C)c[n+]1[O-]`, for which, in the experiment with Rattus norvegicus [2], the inhibition in vivo at 100 mg/kg came out at 22%.
Take `CSc1nccc(C(C)(C)C)n1`: the inhibition in vivo at 100 mg/kg in the experiment on Rattus norvegicus [2] worked out at 35%.
As for `Cc1ncc2c(n1)-c1ccccc1C2`, the inhibition in vivo at 100 mg/kg in the experiment with Rattus norvegicus [2] is under 5%.
With `Cc1cnc(N)nc1-c1ccccc1`, the inhibition in vivo at 100 mg/kg with Rattus norvegicus [2] amounted to 34%.
As to `CN(C)CC(=O)Nc1ncc(-c2ccccc2)c(C(C)(C)C)n1`, in the experiment on Rattus norvegicus [1], the ED50 came out at 84 mg/kg.
For `c1ccc2c(c1)CCCc1ncnnc1-2`, in the experiment on Rattus norvegicus [2], the inhibition in vivo at 100 mg/kg is under 5%.
As for `Cc1ncc(C(C)(C)C)nn1`, in the experiment with Rattus norvegicus [2], the inhibition in vivo at 100 mg/kg was 25%.
Consider `c1ccc2c(c1)CCc1cncnc1-2`, for which, in the experiment on Rattus norvegicus [2], the inhibition in vivo at 100 mg/kg is 32%.
Take `CCOC(=O)Nc1ncc(-c2ccccc2)c(C(C)(C)C)n1`: the inhibition in vivo at 100 mg/kg in the experiment with Rattus norvegicus [2] came out at 24%.
With `Cc1ncc2c(n1)CCN(C)C2`, the inhibition in vivo at 100 mg/kg with Rattus norvegicus [2] turned out to be 45%.
As to `CC(C)(C)c1ccnc(N)n1`, in the experiment with Rattus norvegicus [2], the inhibition in vivo at 100 mg/kg was 32%.
With `CC(=O)Nc1nccc(-c2ccncc2)n1`, in the experiment with Rattus norvegicus [2], the inhibition in vivo at 100 mg/kg was determined as 52%.
`Nc1ncc2c(n1)CCCCCCCCCC2`: the inhibition in vivo at 100 mg/kg with Rattus norvegicus [2] was under 5%.
Consider `Cc1nnc2c(ccc3ccccc32)n1`, for which the inhibition in vivo at 100 mg/kg with Rattus norvegicus [2] was under 5%.
With `CC(C)(C)c1nc(NC(N)=O)ncc1-c1ccccc1`, the inhibition in vivo at 100 mg/kg in the experiment with Rattus norvegicus [2] stood at 14%.
As for `NC(=O)Nc1nccc(-c2ccncc2)n1`, in the experiment on Rattus norvegicus [2], the inhibition in vivo at 100 mg/kg was 12%.
In the case of `CCOC(=O)Nc1nccc(-c2ccncc2)n1`, the inhibition in vivo at 100 mg/kg in the experiment with Rattus norvegicus [2] stood at 31%.
`CC(C)(C)c1c[n+]([O-])c(-c2ccccc2)nn1`: the inhibition in vivo at 100 mg/kg in the experiment with Rattus norvegicus [2] came to 35%.
Regarding `CC(C)(C)c1nc(NC(=O)CCCC(=O)O)ncc1-c1ccccc1`, the inhibition in vivo at 100 mg/kg in the experiment with Rattus norvegicus [2] was 5%.
For the molecule `c1ncc2c(n1)CCCCCCCCCC2`, the inhibition in vivo at 100 mg/kg in the experiment on Rattus norvegicus [2] was under 5%.
In the case of `CC(C)(C)c1ccnc(S)n1`, in the experiment with Rattus norvegicus [2], the inhibition in vivo at 100 mg/kg was 22%.
Regarding `CC(=O)N(C(C)=O)c1ncc(-c2ccccc2)c(C(C)(C)C)n1`, the inhibition in vivo at 100 mg/kg with Rattus norvegicus [2] was 22%.
Regarding `Cc1ncc2c(n1)CCCCCCCCCC2`, the inhibition in vivo at 100 mg/kg with Rattus norvegicus [2] was under 5%.
For `CC(C)(C)C1CCc2nc(N)ncc2C1` (stereo unspecified), the inhibition in vivo at 100 mg/kg with Rattus norvegicus [2] was 41%.
Take `Cc1c(-c2ccccc2)nnc[n+]1[O-]`: in the experiment with Rattus norvegicus [1], the ED50 was determined as 64 mg/kg.
For `Cc1nnc2c(n1)CC(C(C)(C)C)CC2` (stereo unspecified), in the experiment with Rattus norvegicus [2], the inhibition in vivo at 100 mg/kg was under 5%.
Turning to `c1ccc(-c2nnc3c(ccc4ccccc43)n2)cc1`, in the experiment with Rattus norvegicus [2], the inhibition in vivo at 100 mg/kg was under 5%.
On to `CNc1ncc(-c2ccccc2)c(C(C)(C)C)n1`, for which the inhibition in vivo at 100 mg/kg with Rattus norvegicus [2] came out at 37%.
Consider `Cc1ncc(C)c(-c2ccccc2)n1`, for which the inhibition in vivo at 100 mg/kg with Rattus norvegicus [2] was found to be 12%.
Turning to `Cc1cncnc1-c1ccccc1`, the inhibition in vivo at 100 mg/kg in the experiment with Rattus norvegicus [2] came out at 48%.
Consider `c1ccc(-c2nccc(-c3ccncc3)n2)cc1`, for which, in the experiment with Rattus norvegicus [2], the inhibition in vivo at 100 mg/kg is 42%.
Take `N#CNc1nccc(-c2ccncc2)n1`: in the experiment on Rattus norvegicus [2], the inhibition in vivo at 100 mg/kg was under 5%.
Turning to `Cc1nc(-c2ccccc2)nnc1-c1ccccc1`, the inhibition in vivo at 100 mg/kg in the experiment with Rattus norvegicus [2] was under 5%.
As for `CC(C)(C)c1ccnc(NCCc2ccccc2)n1`, the inhibition in vivo at 100 mg/kg with Rattus norvegicus [2] turned out to be 10%.
Regarding `CC(C)(C)c1ccnc(NCc2ccccc2)n1`, the inhibition in vivo at 100 mg/kg in the experiment with Rattus norvegicus [2] stood at 14%.
As to `CC(C)(C)c1ccnc(Cl)n1`, the inhibition in vivo at 100 mg/kg in the experiment on Rattus norvegicus [2] is under 5%.
Consider `CC(C)(C)c1c[n+]([O-])cnn1`, for which the ED50 in the experiment on Rattus norvegicus [1] amounted to 98 mg/kg.
For the molecule `Nc1ncc(-c2ccccc2)c(-c2ccncc2)n1`, in the experiment with Rattus norvegicus [2], the inhibition in vivo at 100 mg/kg was determined as 48%.
In the case of `CC(C)(C)C1CCc2nnc[n+]([O-])c2C1` (stereo unspecified), in the experiment on Rattus norvegicus [2], the inhibition in vivo at 100 mg/kg was 36%.
On to `Nc1nccc(-c2ccccn2)n1`, for which, in the experiment on Rattus norvegicus [2], the inhibition in vivo at 100 mg/kg was determined as 17%.
Regarding `CC(C)(C)Nc1nccc(C(C)(C)C)n1`, the inhibition in vivo at 100 mg/kg in the experiment on Rattus norvegicus [2] came to 26%.
`Cc1nnc2c([n+]1[O-])CC(C(C)(C)C)CC2` (stereo unspecified): in the experiment on Rattus norvegicus [2], the inhibition in vivo at 100 mg/kg came to 48%.
On to `Nc1nccc(-c2cccnc2)n1`, for which the inhibition in vivo at 100 mg/kg with Rattus norvegicus [2] was found to be 32%.
Regarding `CC(C)(C)c1cnc(-c2ccccc2)nn1`, the inhibition in vivo at 100 mg/kg in the experiment with Rattus norvegicus [2] turned out to be 38%.
Turning to `CC(C)(C)c1ccnc(Nc2ccccc2)n1`, the inhibition in vivo at 100 mg/kg with Rattus norvegicus [2] came out at 21%.
As for `Cc1cnc(N)nc1-c1ccncc1`, in the experiment with Rattus norvegicus [1], the ED50 was 66 mg/kg.
Turning to `Nc1nccc(-c2ccncc2)n1` [listing 2 of 2 here], in the experiment with Rattus norvegicus [2], the inhibition in vivo at 100 mg/kg turned out to be 18%.
`CN1CCc2nc(N)ncc2C1`: the inhibition in vivo at 100 mg/kg in the experiment with Rattus norvegicus [2] was under 5%.
Still for that read-out and setting: the figure for `CC(C)(C)c1nc(NC#N)ncc1-c1ccccc1` is under 5%.
For the molecule `Cc1cncnc1-c1ccncc1`, the inhibition in vivo at 100 mg/kg in the experiment on Rattus norvegicus [2] amounted to 50%.
For `Cc1ncnnc1-c1ccccc1`, the inhibition in vivo at 100 mg/kg in the experiment with Rattus norvegicus [2] is under 5%.
Regarding `CNc1nccc(C(C)(C)C)n1`, the inhibition in vivo at 100 mg/kg with Rattus norvegicus [2] was 34%.
Regarding `Cc1nccc(-c2ccncc2)n1`, the ED50 in the experiment on Rattus norvegicus [1] is 47 mg/kg.
Take `Cc1ccc2c(-c3ccccc3)nc(=O)n(C(C)C)c2c1` [PROQUAZONE]: in the experiment on Rattus norvegicus [1], the ED50 was found to be 5.2 mg/kg.
Consider `COc1ccc(-c2cnc(C)nc2-c2ccc(OC)cc2)cc1`, for which the inhibition in vivo at 100 mg/kg in the experiment with Rattus norvegicus [2] was under 5%.
On to `CC(C)(C)c1nc(N)ncc1-c1cccc(C(F)(F)F)c1`, for which the inhibition in vivo at 100 mg/kg in the experiment with Rattus norvegicus [2] turned out to be 8%.
As for `CC(C)(C)c1ccnc(O)n1`, in the experiment with Rattus norvegicus [1], the ED50 is 43 mg/kg.
For the molecule `Nc1ncc2c(n1)-c1ccccc1CC2`, in the experiment with Rattus norvegicus [2], the inhibition in vivo at 100 mg/kg was 32%.
Regarding `CC(C)(C)C1CCc2nnc(-c3ccccc3)[n+]([O-])c2C1` (stereo unspecified), the inhibition in vivo at 100 mg/kg with Rattus norvegicus [2] is 15%.
Regarding `c1ccc2c(c1)ccc1ncnnc12`, the inhibition in vivo at 100 mg/kg with Rattus norvegicus [2] is under 5%.
The same measure, in the same setting: as for `c1cc(-c2ccncn2)ccn1`, the figure is 45%.
